Source: patent US8410078B2, “Composition and methods to treat cardiac diseases” (University of Connecticut, priority 2006, dated 2013)

How the values were obtained:
P2X4R Tg myocytes = experiment: Cyclic AMP enzymatic immunoassay in P2X4R Tg myocytes; assay type: cell-based, mouse; details: 10 minutes, 2-meSATP at 10 μM
Description: Cyclic AMP was determined with an enzymatic immuno-assay kit (EIA, Direct Biotrak EIA kit) according to manufacturer's instructions. The method has been used to estimate cAMP level in dispersed mammalian cardiac ventricular myocytes. In brief, 3-month P2X4R Tg myocytes were isolated and plated in laminin-coated 96 well plate at a density of 1000 cells/well, equilibrated for 1 hour at 37° C., incubated with either phosphate-buffered saline (pH=7.4) or 10 μM 2-meSATP for 10 minutes, and processed for acetylation and subsequent cAMP EIA. cAMP levels were normalized to proteins in each individual well.

cardiac P2X receptor = experiment: Whole-cell voltage clamp of P2 agonist-induced current in WT ventricular myocytes; assay type: cell-based, mouse; details: for Inhibition of the 2-meSATP-induced current by P2X receptor antagonists: PPADS 100 μM, NF449 300 nM, Brilliant Blue G 5 μM, ramp −100 to +50 mV
Description: Mice displaying the CSQ model of severe cardiomyopathy and heart failure were bred and maintained by methods known in the art. The CSQ transgenic (TG) mice were originally provided by Dr. Larry Jones (Krannert Institute of Cardiology, Indiana University School of Medicine, Indiana), and developed hypertrophy followed by a lethal heart failure phenotype with death near the age of 3 months. Ventricular myocytes were obtained from 3-month old wild type (WT) and CSQ mice of either sex (26 WT, 47 TG) by an enzymatic dissociation procedure. Briefly, the hearts were rapidly excised from mice that had been anesthetized with pentobarbital and treated with 1000 Units of heparin. The aorta was cannulated and the heart perfused in a Langendorff apparatus with oxygenated (95% O2/5% CO2) Ca^2+-free solution (37° C.) for 5 minutes at a rate of 2.5 ml/min. The solution composition was: 126 mM NaCl, 4.4 mM KCl, 1.0 mM MgCl2, 18 mM NaHCO3, 11 mM Glucose, 4 mM HEPES, and 3 mM BDM (2,3-butanedione monoxime), (pH 7.3 adjusted with NaOH). Thereafter, the perfusing solution was changed to that containing 25 μM CaCl2 and liberase (70 μg/ml, Roche Molecular Biochemicals, Inc.) for 8-10 minutes. Cells were sedimented by gravity for 10-15 minutes and the pellet was resuspended in 200 μM Ca^2+-containing Tyrode's solution (containing 3 mM BDM), allowed to settle for 30 minutes at room temperature, and suspended with Tyrode's solution containing: 135 mM NaCl, 5.4 mM KCl, 1.0 mM CaCl2, 1.0 mM MgCl2, 10 mM HEPES and 10 mM dextrose (pH 7.4 adjusted with NaOH). The experiments were carried out at room temperature (22-23° C.) and were completed within 4-6 hours after myocyte isolation.
The whole cell patch-clamp technique was used for these experiments. Electrodes were prepared from borosilicate glass pipettes (1.2 mm i.d.) with a two step pulling procedure and filled with pipette solution. The pipette was connected via an Ag—AgCl wire to the head stage of an amplifier (List EPC-7, Medical Systems, Greenvale, N.Y.) controlled by a computer and Axon pClamp™ software. For voltage clamp experiments, the electrodes were filled with a solution containing: 135 mM cesium aspartate, 5 mM NaCl, 5 mM Mg2ATP, 10 mM HEPES, and 10 mM EGTA (pH 7.3 adjusted with CsOH) with or without 2 mM GDPβS. Electrode resistances were 2-4 MΩ. As soon as electrical contact was established, the superfusion medium was changed to a modified Tyrode's solution (5.4 mM KCl was omitted and 10 mM CsCl and 5 μM ouabain were added to Tyrode's solution to block K^+ currents and the Na/K pump current, respectively). In quantifying the P2 agonist-induced current, the Tyrode's solution contained the indicated concentration of each agent. In studying the effect of a P2 receptor antagonist, both agonist and antagonist were co-applied at the indicated concentrations. The voltage clamp protocol used was a ramp voltage protocol from −100 mV holding potential to +50 mV. The ramp protocol was applied to cells at 20 s intervals for 1 minute. Three current traces from −100 mV to 50 mV were averaged to construct the I-V relationship.

[1] = test system: Binary P2X4 receptor/CSQ transgenic mice; experiment: Lifespan of binary P2X4 receptor/CSQ transgenic mice given drug in drinking water; assay type: in vivo, mouse; details: 2 mg/ml in drinking water
Description: Metoprolol, a beta-adrenergic receptor blocker, was dissolved in drinking water at a concentration of 2 mg/ml. Binary P2X4 receptor/CSQ transgenic mice were fed either regular drinking water (n=8 mice) or drinking water containing the metoprolol (n=8 mice). […] Because overexpression of the P2X4 receptor rescues calsequestrin mice in a similar manner to MRS2339, administration of a beta blocker such as metoprolol with MRS2339 or another P2X receptor agonist should synergistically increase lifespan.

rat 5′-ectonucleotidase = target: T1, rat 5′-ectonucleotidase (Rattus norvegicus, UniProt P21588); details: cited from earlier work
T1 sequence (P21588 29-551): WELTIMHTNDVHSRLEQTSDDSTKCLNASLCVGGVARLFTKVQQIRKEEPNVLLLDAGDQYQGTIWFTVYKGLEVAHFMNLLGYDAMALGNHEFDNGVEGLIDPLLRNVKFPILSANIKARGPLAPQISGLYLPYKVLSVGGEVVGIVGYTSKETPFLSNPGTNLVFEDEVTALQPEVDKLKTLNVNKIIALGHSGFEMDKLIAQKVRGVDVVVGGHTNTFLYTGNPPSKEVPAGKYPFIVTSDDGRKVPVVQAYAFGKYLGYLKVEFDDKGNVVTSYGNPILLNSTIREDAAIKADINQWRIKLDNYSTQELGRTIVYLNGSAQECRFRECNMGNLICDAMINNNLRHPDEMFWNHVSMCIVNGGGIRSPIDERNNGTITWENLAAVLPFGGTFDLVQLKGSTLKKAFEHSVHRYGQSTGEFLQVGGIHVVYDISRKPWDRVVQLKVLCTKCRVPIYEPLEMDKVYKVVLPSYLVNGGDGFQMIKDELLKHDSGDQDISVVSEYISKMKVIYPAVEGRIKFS

For `CC(C)NCC(O)c1ccc(O)c(O)c1` (stereo not drawn) [isoproterenol], the “Intracellular cyclic AMP level” value (P2X4R Tg myocytes) was 16.6 ± 1.53 pmol/mg.
With `Cc1nc(N=Nc2ccc(S(=O)(=O)O)cc2S(=O)(=O)O)c(COP(=O)(O)O)c(C=O)c1O` [PPADS] the “Inhibition of the 2-meSATP-induced current by P2X receptor antagonists” value (shortened to “Inhibition”) (cardiac P2X receptor; 2-meSATP 3 μM) was “partially inhibit”.
For `CCOc1ccc(Nc2ccc(/C(=C3C=C/C(=[N+](/CC)Cc4cccc(S(=O)(=O)[O-])c4)C=C/3C)c3ccc(N(CC)Cc4cccc(S(=O)(=O)[O-])c4)cc3C)cc2)cc1.[Na+]` [Brilliant Blue G], the “Inhibition” value (cardiac P2X receptor; 2-meSATP 3 μM) was “very little inhibitory effect”.
Molecule `COCCc1ccc(OCC(O)CNC(C)C)cc1` (stereo not drawn) [Metoprolol] has a Median lifespan [1] of 491 days.
With `CNc1nc(I)nc2c1ncn2[C@H]1C[C@H](OP(=O)(O)O)[C@]2(COP(=O)(O)O)C[C@H]12` [MRS2500, (1′R,2′S,4′S,5′S)-4-(2-iodo-6-methylamino-purin-9-yl)-1-[(phosphate)-methyl]-2-(phosphate)-bicyclo[3.1.0]hexane] the “Block of the current evoked by 2-meSATP” value (cardiac P2X receptor; MRS2500 1 μM, 2-meSATP 3 μM, WT myocytes) was “could not block” and the “Block of the current evoked by MRS2339” value (cardiac P2X receptor; data not shown) was “could not block”.
For `CSc1nc(N)c2ncn([C@@H]3O[C@H](COP(=O)(O)OP(=O)(O)O)[C@@H](O)[C@H]3O)c2n1` [2-meSADP, 2-methylthioADP], the Induction of current (cardiac P2X receptor; 3 μM, myocytes with a full response to 3 μM 2-meSATP) was “failed to induce any current”.
In the case of `O=C(Nc1cc(C(=O)Nc2ccc(S(=O)(=O)O)cc2S(=O)(=O)O)cc(C(=O)Nc2ccc(S(=O)(=O)O)cc2S(=O)(=O)O)c1)Nc1cc(C(=O)Nc2ccc(S(=O)(=O)O)cc2S(=O)(=O)O)cc(C(=O)Nc2ccc(S(=O)(=O)O)cc2S(=O)(=O)O)c1` [NF449, 4,4′,4″,4′″-[carbonylbis(imino-5,1,3-benzenetriyl-bis(carbonylimino))]tetrakis-1,3-benzenedisulfonic acid], the “Inhibition” value (cardiac P2X receptor; 2-meSATP 3 μM) is reported as “very little inhibitory effect”.
In the case of `Nc1ncnc2c1ncn2C1C(O)C(O)C2(COP(=O)(O)O)CC12` (stereo not drawn) [(N) methanocarba AMP], the “Rate of hydrolysis relative to the rate of hydrolysis of AMP” value (rat 5′-ectonucleotidase) is listed as 0.14%.
